According to patent publication US20260219274A1, “POLYOL SWEETNERS AND CARDIOVASCULAR AND THROMBOTIC EVENT RISK” (THE CLEVELAND CLINIC FOUNDATION, priority 2023, published 2026):

How the values were obtained:
[1] = tested on: human platelet-rich plasma; experiment: Aggregometry in platelet-rich plasma; type: cell-based; details: for platelet responsiveness / aggregation with varying polyol level: fixed submaximal ADP or TRAP6, varying pre-incubation levels
Experimental: Aggregometry in platelet rich plasma (PRP) was performed as previously described^40 and outlined in supplemental methods.
Platelet rich plasma (PRP) was isolated as previously described.^5 Whole blood was drawn from healthy donors and anticoagulated with sodium citrate (0.109 M). PRP was prepared by centrifuging at 100×g for 10 min at 22° C. Platelet poor plasma (PPP) was obtained by additional centrifugation of the remaining blood samples at 11,000×g for 2 min. Next, platelets were counted with a hemocytometer and the platelet concentration adjusted to 2×10^8/mL using PPP. PRPs were then pre-incubated with xylitol (Catalogue #X3375-5G, Sigma, St. Louis, MO, USA) at indicated concentrations or vehicle (saline) for 30 min at 22° C. After exposure to xylitol or vehicle, PRPs were maintained in suspension with constant stirring (600 rpm) at 37° C. Subsequently, platelet aggregation was induced by adding the agonists ADP (up to 5 μM, Catalogue #384, Chronolog, Havertown, PA, US) or TRAP6 (TFLLR-NH2, up to 10 μM, Catalogue #464, Tocris, Bristol, UK). For all platelet aggregometry experiments, blood was always processed within approx. 30 minutes of collection, and isolated platelets were used within 120 minutes of isolation. When used, pairs of vehicle vs. xylitol incubated PRP were always incubated and analyzed together (beginning, middle, end of platelet prep use) and after 120 minutes post isolation, PRPs were not used anymore.
Platelet rich plasma (PRP) and platelet poor plasma (PPP) was prepared as previously described with sodium citrate (0.109 M) as anticoagulant^51. Platelets were counted and concentrations adjusted to 2×10^8/mL with PPP. PRPs were pre-incubated with erythritol (Catalogue #E7500, Sigma, St. Louis, MO, USA), glucose (Catalogue #G7021, Sigma, St. Louis, MO, USA) or 1,5-AHG (Catalogue #29874, Cayman Chemical, Ann Arbor, Michigan, USA) (at indicated concentrations) or vehicle (saline) for 30 min at 22° C. After pre-incubation PRPs were maintained in suspension with constant stirring (600 rpm) at 37° C. and platelet aggregation was initiated using ADP (up to 5 μM, Catalogue #384, Chronolog, Havertown, PA, US) or TRAP6 (TFLLR-NH2, up to […], Catalogue #464, Tocris, Bristol, UK).

[2] = design: species or system mice; details: mouse, in vivo
Experimental: FIG. 11. […] Mice were gavaged with roughly molar equivalent levels of either xylitol alone (500 mg/kg in water) or erythritol alone (400 mg/kg), or both compounds (500 mg/kg xylitol and 400 mg/kg erythritol). Time-dependent changes in levels of xylitol and erythritol were quantified using LC-MS/MS in plasma (Panel A), urine (Panel B), and feces (Panel C) for the three groups of mice. At baseline, both xylitol and erythritol are present in mouse plasma at low levels (0.5-1.0 μM). […] Reported is content of xylitol and erythritol per ug of wet feces.
Stable-isotope-dilution LC-MS/MS was developed to specifically quantify xylitol in human and mouse plasma, urine and feces (fecal pellets were dissolved in water and supernatant subjected to LC-MS/MS). Ice cold methanol (800 μL) and internal standard (^13C2-arabitol) were added to the plasma samples (20 μL) or urine (20 μL) previously diluted in MQ water, followed by vortexing and centrifuging (21,000×g; 4° C. for 15 min). The clear supernatant (800 μL) was transferred into a clean, labeled glass tubes (Borosilicate glass 12×75 mm) and dried in a speed vacuum concentrator (Speed vac plus, SC210, Thermo Sevant). Acetylation was used since xylitol is poorly ionizable in order to achieve better retention on the reverse phase column and separation from other structural isomers as well as better ionization to achieve better sensitivity. The dry residue was reconstituted in acetic anhydride (100 μL) and 4-Dimethylaminopyridine (DMAP) in pyridine (100 μl; 1 mg/mL), sealed with safety caps, vortexed and heated (45 min at 80° C.) followed with drying under nitrogen. Dried residues were dissolved in HCl in water (0.1 M; 0.5 mL) and extracted with ethylacetate (2.0 mL). Ethylacetate layer was transferred into a clean glass tube (Borosilicate glass 12×75 mm) and dried under nitrogen. The dry residue was reconstituted in ammonium formate in a mixture of methanol:water (100 μL; 50:50 v/v with 10 mM ammonium formate), tubes were vortexed and liquid was transferred to glass vials with micro-insets and caped. LC-MS/MS analysis was performed on a chromatographic system consisting of two Shimadzu LC-30 AD pumps (Nexcra X2), a CTO 20AC oven operating at 30° C., and a SIL-30 AC-MP autosampler in tandem with a triple quadruple mass spectrometer (8050 series, Shimadzu Scientific Instruments, Inc., Columbia, MD, USA). For chromatographic separation, a Kinetex C18 column (50 mm×2.1 mm; 2.6 μm) (Cat #00B-4462-AN, Phenomenex, Torrance, CA) was used. […] Accuracy and precision of the method to quantify xylitol (separated from its structural isomers arabitol and ribitol) were assessed by a standard addition method of pure synthetic standard into different plasma pools. The accuracy of xylitol measurement was determined by the method of standard additions^12 using three different plasma pools, and was 2.4-2.8%. Intra- and inter-day coefficients of variation (CVs), measured by multiple analysis of three different control samples, were 1.2-8.9% and 10.9-11.5%, respectively. Freeze/thaw stability was determined over the five cycles and it was less than 7% for xylitol. The limit of quantification (LOQ) was defined (by convention) as the level at which xylitol was measured within the matrix (plasma) with a peak having signal-to-noise-ratio of 10:1. Limit of detection (LOD) was determined to be the lowest concentration of xylitol in the sample with a signal-to-noise ratio ≥3. […]

Compound	stimulus-dependent platelet aggregation response to ADP and TRAP6 ([1]; PRP incubated with the polyol versus vehicle, submaximal agonist)	platelet responsiveness / aggregation with varying polyol level [1]	erythritol concentration eliciting significant increase in ADP-stimulated aggregometry responses ([1]; threshold, FIG. 27) [µM]	erythritol concentration eliciting significant increase in thrombin-stimulated aggregometry responses ([1]; threshold, FIG. 27) [µM]	baseline plasma level [2] [µM]	oral absorption in mice ([2]; po)	stimulus-dependent platelet activation and aggregation ([1]; xylitol 30 μM with sub-maximal ADP or TRAP6)	effect on PRP without agonist ([1]; xylitol 30 μM, brief incubation)	postprandial increase in urine [2]	recovery in feces [2]
OC[C@@H](O)[C@@H](O)CO [erythritol]	significant increase	dose-dependently enhanced	18	18	0.5 to 1.0	rapidly absorbed	–	–	–	–
OC[C@@H](O)[C@H](O)[C@@H](O)CO [xylitol]	–	dose-dependent enhancement	–	–	0.5 to 1.0	–	marked enhancement	no effect	Significant xylitol increases also were not observed	the majority of xylitol is recovered in feces
